Test results as given in US20250101034A1, “COMPOSITIONS USEFUL FOR MODULATING SPLICING” (SKYHAWK THERAPEUTICS, INC., priority 2021, published 2025).

Tests used:
[1] = test system: total ATXN3 protein; assay: ATXN3 total protein assay (MSD, SK-N-MC cells); format: cell-based, Human; conditions: 48 hours incubation, read-out: ATXN3 Potency - Protein IC50
Summary of the method: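 SK-N-MC human neuroblastoma cells treated with compound (30 μM to 0.6 nM) for 48 h, then lysed with protease inhibitors. Total ATXN3 measured by MSD sandwich immunoassay (mouse capture, rabbit detection antibodies, anti-rabbit MSD-ST secondary), quantified against recombinant ATXN3 standards.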

[2] = test system: ATXN3 transcripts containing exon 4 (E4E5); assay: ATXN3 quantitative splicing assay (qPCR, SK-N-MC cells); format: cell-based; conditions: Homo sapiens, 24 h treatment, qPCR E4E5 primers/probe, read-out: ATXN3 Potency - Splicing E4E5 IC50
Summary of the method: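 SK-N-MC cells treated 24 h with compound (30 μM to 0.6 nM, 0.3% DMSO) 24 h after plating; lysates reverse-transcribed and analysed by TaqMan qPCR. E4E5 primers/probe detect exon 4–containing transcripts; E8E9 measures total ATXN3, alongside exon 4–skipped transcript detection.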

| IC50 [1] | IC50 [2] | Structure (SMILES) |
| --- | --- | --- |
| 0.501 to 5 µM | 5 to 10 µM | Cc1c(CC(N)C2COC2)sc2c(NCc3cccs3)cnnc12 (stereo not drawn) [Compound 93, 6-[2-amino-2-(oxetan-3-yl)ethyl]-7-methyl-N-[(thiophen-2-yl)methyl]thieno[3,2-c]pyridazin-4-amine] |
| 0.501 to 5 µM | 0.501 to 5 µM | Cc1c(C[C@@H](N)CCF)sc2c(NCc3cccs3)cnnc12 [Compound 48, 6-[(2S)-2-amino-4-fluorobutyl]-7-methyl-N-(thiophen-2-ylmethyl)thieno[3,2-c]pyridazin-4-amine] |
| 0.501 to 5 µM | 0.501 to 5 µM | Cc1c(C[C@@H](N)[C@@H](C)F)sc2c(NCc3cccs3)cnnc12 [Compound 111, 6-[(2R,3R)-2-amino-3-fluorobutyl]-7-methyl-N-[(thiophen-2-yl)methyl]thieno[3,2-c]pyridazin-4-amine] |
| 0.101 to 0.5 µM | 0.101 to 0.5 µM | COC[C@H](N)Cc1sc2c(NCc3cccs3)cnnc2c1Br [Compound 136, 6-[(2R)-2-amino-3-methoxypropyl]-7-bromo-N-[(thiophen-2-yl)methyl]thieno[3,2-c]pyridazin-4-amine] |
| 0.501 to 5 µM | 0.501 to 5 µM | CSC[C@H](N)Cc1sc2c(NCc3cccs3)cnnc2c1C [Compound 58, 6-[(2R)-2-amino-3-(methylsulfanyl)propyl]-7-methyl-N-(thiophen-2-ylmethyl)thieno[3,2-c]pyridazin-4-amine] |
| 5 to 10 µM | 5 to 10 µM | Cc1c(C[C@@H](N)C2CC2)sc2c(NCc3ccco3)cnnc12 [Compound 64, 6-[(2R)-2-amino-2-cyclopropylethyl]-N-[(furan-2-yl)methyl]-7-methylthieno[3,2-c]pyridazin-4-amine] |
| 0.501 to 5 µM | 0.501 to 5 µM | Cc1c(C[C@@H](N)CO)sc2c(NCc3cccs3)cnnc12 [Compound 3, (2R)-2-amino-3-{7-methyl-4-[(thiophen-2-ylmethyl)amino]thieno[3,2-c]pyridazin-6-yl}propan-1-ol] |

| Structure (SMILES) | IC50 [1] | IC50 [2] |
| --- | --- | --- |
| C[C@H](N)Cc1sc2c(N[C@H](C)c3cccs3)cnnc2c1Br [Compound 113, 6-[(2S)-2-aminopropyl]-7-bromo-N-[(1R)-1-(thiophen-2-yl)ethyl]thieno[3,2-c]pyridazin-4-amine] | 10 to 40 µM | 10 to 40 µM |
| COc1nnc2c(C)c(C[C@H](C)N)sc2c1NCc1cccs1 [Compound 86, 6-[(2S)-2-aminopropyl]-3-methoxy-7-methyl-N-[(thiophen-2-yl)methyl]thieno[3,2-c]pyridazin-4-amine] | 10 to 40 µM | 10 to 40 µM |
